Laboratory results from patent US7601331B2, “NIR-sensitive nanoparticle” (National University of Singapore, priority 2004, dated 2009).

What was measured:
[1] = Experimental: Anti-cancer drugs and other biomolecules can be loaded onto the NIR-sensitive nanoparticles by coating the particles with surfactants. […] The insolubility of MUA in water necessitated the chemisorption of MUA in absolute ethanol. NIR-sensitive nanoparticles (colloids) were separated from the aqueous reaction mixture by centrifugation, and dispersed in 100 mM MUA in absolute ethanol. The nanoparticles (colloids) were dispersed in these surfactant solutions for 3 days, an estimated time for chemisorption to reach equilibrium.
[2] = Thermogravimetric analysis (TGA) of freeze-dried surface-modified particles; format: physicochemical; details: for Decomposition Temp.: TGA in helium, surfactant on NIR-sensitive nanoparticles; for Ave. Absorbed (amount of ligand adsorbed): TGA of freeze-dried particles
Experimental: Thermogravimetric analysis (TGA) was conducted in helium using a Perkin-Elmer series 7 Thermal Analysis system at a ramp rate of 4° C./min from 30° C. to 900° C.

Row | SMILES | solubility in water [1] | Decomposition Temp. [2] | Ave. Absorbed (amount of ligand adsorbed) [2]
1 | O=C(O)CCCCCCCCCCS [MUA, mercaptoundecanoic acid] | insolubility | ~200 °C | 0.10 ± 0.03 nmol/mg
2 | O=C(O)CS [MAA, mercaptoacetic acid] | – | ~150 °C | 0.14 ± 0.01 nmol/mg
